One assay addresses T1, human α-thrombin (Homo sapiens, UniProt P00734).
T1 construct: Purified human α-thrombin; purchased Enzyme Research Laboratories, Inc
The assay can be described thus: In vitro inhibition of purified thrombin (hydrolysis of Bz-Phe-Val-Arg-pNa). The format is biochemical. The conditions noted are these: for thrombin inhibition, potency and selectivity in words: conclusion from Table 1 (versus factor Xa and plasmin); for IC50: purified human α-thrombin 36 nM, Bz-Phe-Val-Arg-pNa 66 μM, pH 7.5, 37° C. The procedure:
(§1) The ability of the compounds of the present invention to act as inhibitors of thrombin, factor Xa and plasmin catalytic activity was assessed by determining the concentration which inhibited enzyme activity by 50% using purified human enzymes. The concentration of added inhibitor that caused a 50% decrease in the initial rate of hydrolysis was defined as the IC50 value.
All assays are based on the ability of the test compound to inhibit the hydrolysis of a peptide p-nitroanilide substrate. In a typical experiment, appropriate substrate is prepared in DMSO, and diluted into an assay buffer consisting of 50ram HEPES and 130 mM NaCl at a pH of 7.5. The final concentration for each of the substrates is listed below. All substrate concentrations are at least 10 fold lower than Km to insure inhibition is competitive. Test compounds are prepared as 1 mg/ml solutions in DMSO, and three additional 10-fold dilutions in DMSO are prepared. Enzyme solutions are prepared at the concentrations listed below in assay buffer.
(§2) In a typical IC50 determination, into each well of a 96 well plate is pipetted 280 uL of substrate solution, 10 μL of inhibitor solution, and the plate is allowed to thermally equilibrate at 37° C. in a Molecular Devices Plate Reader for at least 10 minutes. Reactions are initiated by the addition of a 20 μL aliquot of enzyme, and the absorbance increase at 405 nm is recorded for 15 minutes. Data corresponding to less than 10% of the total substrate hydrolysis is used in the calculations. The ratio of the velocity (rate of the change in absorbance as a function of time) for a sample containing no inhibitor is divided by the velocity of a sample containing inhibitor, and is plotted as a function of inhibitor concentration. The inverse of the slope is the concentration of inhibitor which produces a 50% decrease in activity of the enzyme. This concentration is referred to as the IC50.
Thrombin activity was assessed as the ability to hydrolyse the substrate N-benzoyl-Phe-Val-Arg-p-nitroanilide (Bz-Phe-Val-Arg-pNa), and was obtained from Sigma Chemical Company (St. Louis, Mo.). Substrate solutions were prepared at a concentration of 60 μM (60 μM<<Km =1.2 mM) in assay buffer. Final DMSO concentration was 0.3%. Purified human α-thrombin was obtained from Enzyme Research Laboratories, Inc., and was diluted into assay buffer to a concentration of 1.2 μM. Final reagent concentrations were: [thrombin]=36 nM, [Bz-Phe-Val-Arg-pNa]=66 μM, [inhibitor]=60 to 0.06 μM.

For a further assay, the system named is factor Xa. The experiment in a line: In vitro inhibition of factor Xa (hydrolysis of Bz-Ile-Glu-Gly-Arg-pNa). The format is biochemical, human. The conditions noted are these: at 60 μM inhibitor; factor Xa 10 nM, Bz-Ile-Glu-Gly-Arg-pNa 26 μM, pH 7.5, 37° C. The procedure: as §1
All assays are based on the ability of the test compound to inhibit the hydrolysis of a peptide p-nitroanilide substrate. In a typical experiment, appropriate substrate is prepared in DMSO, and diluted into an assay buffer consisting of 50ram HEPES and 130 mM NaCl at a pH of 7.5. The final concentration for each of the substrates is listed below. […]
as §2, with “Data corresponding to less than 10% of the total substrate hydrolysis is used in the calculations.” left out, “The inverse of the slope is the concentration of inhibitor which produces a 50% decrease in activity of the enzyme. This concentration is referred to as the IC50.” left out

A word on the IC50: it is the concentration that inhibits the measured activity by half. Consider `Nc1ccc(CNC(=O)[C@@H]2CCCN2C(=O)[C@H](N)Cc2ccccc2)cc1` [Compound 13, D-phenylalanyl-N-[2-(4-aminobenzyl)]-L-prolinamide], for which, at human α-thrombin, the “thrombin inhibition, potency and selectivity in words” value was “highly selective and potent inhibitors of thrombin”; the concentration for half-maximal inhibition (IC50) was found to be 1000 nM. The “Factor Xa % Inhibition at 60 μM” value in the assay with factor Xa came to 0%.
`COc1cc(CNC(=O)[C@@H]2CCCN2C(=O)[C@H](N)Cc2ccccc2)ccc1O` [Compound 7, D-phenylalanyl-N-[2-(4-hydroxy-3-methoxybenzyl)]-L-prolinamide]: on human α-thrombin, the “thrombin inhibition, potency and selectivity in words” value is “highly selective and potent inhibitors of thrombin”; the concentration for half-maximal inhibition (IC50) was 4700 nM. In addition, the “Factor Xa % Inhibition at 60 μM” value in the assay on factor Xa stood at 0%.
In the case of `Nc1ccc(CNC(=O)[C@@H]2CCCN2C(=O)[C@@H](Cc2ccccc2)NC(=O)OCc2ccccc2)cc1` [Compound 12, N-CBZ-D-phenylalanyl-N-[2-(4-aminobenzyl)]-L-prolinamide], on human α-thrombin, the “thrombin inhibition, potency and selectivity in words” value is “highly selective and potent inhibitors of thrombin”; the IC50 is 2800 nM.

(Values after patent US5612369A, “Thrombin inhibitors” (3-Dimensional Pharmaceuticals, Inc., priority 1995, dated 1997).)
